Measured values published in patent US11019818B2, “Herbicidal 3-substituted lactams” (FMC Corporation, priority 2017, dated 2021).

Columns and labels:
Assay type in all cases: in vivo
[1] = test system: barnyardgrass (Echinochloa crus-galli); assay: Test A postemergence, barnyardgrass; conditions: 0 to 100 scale (0 no effect, 100 complete control), approx. 10 d
Text: (§1) Seeds of plant species selected from barnyardgrass (Echinochloa crus-galli), kochia (Kochia scoparia), ragweed (common ragweed, Ambrosia elatior), ryegrass, Italian (Italian ryegrass, Lolium multiflorum), foxtail, green (green foxtail, Setaria viridis), and pigweed (Amaranthus retroflexus) were planted into a blend of loam soil and sand and treated preemergence with a directed soil spray using test chemicals formulated in a non-phytotoxic solvent mixture which included a surfactant. At the same time, plants selected from these weed species and also wheat (Triticum aestivum), corn (Zea mays), blackgrass (Alopecurus myosuroides), and galium (catchweed bedstraw, Galium aparine) were planted in pots containing the same blend of loam soil and sand and treated with postemergence applications of test chemicals formulated in the same manner. Plants ranged in height from 2 to 10 cm and were in the one- to two-leaf stage for the postemergence treatment. Treated plants and untreated controls were maintained in a greenhouse for approximately 10 d, after which time all treated plants were compared to untreated controls and visually evaluated for injury. Plant response ratings, summarized in Table A, are based on a 0 to 100 scale where 0 is no effect and 100 is complete control. A dash (-) response means no test result.

kochia (Kochia scoparia) [2] = assay: Test A postemergence, kochia; conditions: 0 to 100 scale (0 no effect, 100 complete control), approx. 10 d
Text: as §1

[3] = test system: ragweed (common ragweed, Ambrosia elatior); assay: Test A postemergence, ragweed; conditions: 0 to 100 scale (0 no effect, 100 complete control), approx. 10 d
Text: as §1

[4] = test system: ryegrass, Italian (Italian ryegrass, Lolium multiflorum); assay: Test A postemergence, Italian ryegrass; conditions: 0 to 100 scale (0 no effect, 100 complete control), approx. 10 d
Text: as §1

[5] = test system: foxtail, green (green foxtail, Setaria viridis); assay: Test A postemergence, green foxtail; conditions: 0 to 100 scale (0 no effect, 100 complete control), approx. 10 d
Text: as §1

[6] = test system: pigweed (Amaranthus retroflexus); assay: Test A postemergence, pigweed; conditions: 0 to 100 scale (0 no effect, 100 complete control), approx. 10 d
Text: as §1

[7] = test system: wheat (Triticum aestivum); assay: Test A postemergence, wheat; conditions: 0 to 100 scale (0 no effect, 100 complete control), approx. 10 d
Text: as §1

corn (Zea mays) = assay: Test A postemergence, corn; conditions: 0 to 100 scale (0 no effect, 100 complete control), approx. 10 d
Text: as §1

[8] = test system: blackgrass (Alopecurus myosuroides); assay: Test A postemergence, blackgrass; conditions: 0 to 100 scale (0 no effect, 100 complete control), approx. 10 d
Text: as §1

[9] = test system: galium (catchweed bedstraw, Galium aparine); assay: Test A postemergence, galium; conditions: 0 to 100 scale (0 no effect, 100 complete control), approx. 10 d
Text: as §1

[10] = test system: barnyardgrass (Echinochloa crus-galli); assay: Test A preemergence, barnyardgrass; conditions: 0 to 100 scale (0 no effect, 100 complete control), approx. 10 d
Text: as §1

kochia (Kochia scoparia) [11] = assay: Test A preemergence, kochia; conditions: 0 to 100 scale (0 no effect, 100 complete control), approx. 10 d
Text: as §1

[12] = test system: ragweed (common ragweed, Ambrosia elatior); assay: Test A preemergence, ragweed; conditions: 0 to 100 scale (0 no effect, 100 complete control), approx. 10 d
Text: as §1

[13] = test system: ryegrass, Italian (Italian ryegrass, Lolium multiflorum); assay: Test A preemergence, Italian ryegrass; conditions: 0 to 100 scale (0 no effect, 100 complete control), approx. 10 d
Text: as §1

[14] = test system: foxtail, green (green foxtail, Setaria viridis); assay: Test A preemergence, green foxtail; conditions: 0 to 100 scale (0 no effect, 100 complete control), approx. 10 d
Text: as §1

[15] = test system: pigweed (Amaranthus retroflexus); assay: Test A preemergence, pigweed; conditions: 0 to 100 scale (0 no effect, 100 complete control), approx. 10 d
Text: as §1

[16] = test system: barnyardgrass (Echinochloa crus-galli); assay: Test B flooded paddy test, barnyardgrass; conditions: Flood, 250 g ai/ha; applied to paddy water at 2-leaf stage; visual rating after 13 to 15 d; scale 0 to 100, 0 is no effect, 100 is complete control
Procedure: (§2) Plant species in the flooded paddy test selected from rice (Oryza sativa), sedge, umbrella (small-flower umbrella sedge, Cyperus difformis), ducksalad (Heteranthera limosa), and barnyardgrass (Echinochloa crus-galli) were grown to the 2-leaf stage for testing. At time of treatment, test pots were flooded to 3 cm above the soil surface, treated by application of test compounds directly to the paddy water, and then maintained at that water depth for the duration of the test. Treated plants and controls were maintained in a greenhouse for 13 to 15 d, after which time all species were compared to controls and visually evaluated. Plant response ratings, summarized in Table B, are based on a scale of 0 to 100 where 0 is no effect and 100 is complete control. A dash (-) response means no test result.

[17] = test system: ducksalad (Heteranthera limosa); assay: Test B flooded paddy test, ducksalad; conditions: Flood, 250 g ai/ha; applied to paddy water at 2-leaf stage; visual rating after 13 to 15 d; scale 0 to 100, 0 is no effect, 100 is complete control
Procedure: as §2

rice (Oryza sativa) = assay: Test B flooded paddy test, rice; conditions: Flood, 250 g ai/ha; applied to paddy water at 2-leaf stage; visual rating after 13 to 15 d; scale 0 to 100, 0 is no effect, 100 is complete control
Procedure: as §2

[18] = test system: sedge, umbrella (small-flower umbrella sedge, Cyperus difformis); assay: Test B flooded paddy test, umbrella sedge; conditions: Flood, 250 g ai/ha; applied to paddy water at 2-leaf stage; visual rating after 13 to 15 d; scale 0 to 100, 0 is no effect, 100 is complete control
Procedure: as §2

Row | Compound | Plant response rating, Barnyardgrass ([1]; 31 g ai/ha) | Plant response rating, Barnyardgrass ([1]; 125 g ai/ha) | Plant response rating, Kochia (kochia (Kochia scoparia) [2]; 31 g ai/ha) | Plant response rating, Kochia (kochia (Kochia scoparia) [2]; 125 g ai/ha) | Plant response rating, Ragweed ([3]; 31 g ai/ha) | Plant response rating, Ragweed ([3]; 125 g ai/ha) | Plant response rating, Ryegrass, Italian ([4]; 31 g ai/ha) | Plant response rating, Ryegrass, Italian ([4]; 125 g ai/ha) | Plant response rating, Foxtail, Green ([5]; 31 g ai/ha) | Plant response rating, Foxtail, Green ([5]; 125 g ai/ha) | Plant response rating, Pigweed ([6]; 31 g ai/ha) | Plant response rating, Pigweed ([6]; 125 g ai/ha) | Plant response rating, Wheat ([7]; 31 g ai/ha) | Plant response rating, Wheat ([7]; 125 g ai/ha) | Plant response rating, Corn (corn (Zea mays); 31 g ai/ha) | Plant response rating, Corn (corn (Zea mays); 125 g ai/ha) | Plant response rating, Blackgrass ([8]; 31 g ai/ha) | Plant response rating, Blackgrass ([8]; 125 g ai/ha) | Plant response rating, Galium ([9]; 31 g ai/ha) | Plant response rating, Galium ([9]; 125 g ai/ha) | other results
1 | CCNC(=O)C1(C(=O)Nc2cccc(F)c2F)C(=O)N(C)CC1c1ccc(C(F)(F)F)cc1 (stereo not drawn) [Compound 7] | 0 | 10 | 0 | 0 | 0 | 0 | 0 | 10 | 0 | 20 | 10 | 30 | 0 | 0 | 0 | 0 | 0 | 0 | 0 | 30 | Plant response rating, Barnyardgrass ([10]; 31 g ai/ha): 0; Plant response rating, Barnyardgrass ([10]; 125 g ai/ha): 70; Plant response rating, Kochia (kochia (Kochia scoparia) [11]; 31 g ai/ha): 0; Plant response rating, Kochia (kochia (Kochia scoparia) [11]; 125 g ai/ha): 0; Plant response rating, Ragweed ([12]; 31 g ai/ha): 0; Plant response rating, Ragweed ([12]; 125 g ai/ha): 0; Plant response rating, Ryegrass, Italian ([13]; 31 g ai/ha): 0; Plant response rating, Ryegrass, Italian ([13]; 125 g ai/ha): 0; Plant response rating, Foxtail, Green ([14]; 31 g ai/ha): 0; Plant response rating, Foxtail, Green ([14]; 125 g ai/ha): 80; Plant response rating, Pigweed ([15]; 31 g ai/ha): 0; Plant response rating, Pigweed ([15]; 125 g ai/ha): 10; Plant response rating, Barnyardgrass [16]: 0; Plant response rating, Ducksalad [17]: 75; Plant response rating, Rice (rice (Oryza sativa)): 30; Plant response rating, Sedge, Umbrella [18]: 0
2 | CC(C)NC(=O)C1(C(=O)Nc2cccc(F)c2F)C(=O)N(C)CC1c1ccc(C(F)(F)F)cc1 (stereo not drawn) [Compound 8] | 0 | 0 | 0 | 0 | 0 | 0 | 0 | 0 | 0 | 0 | 0 | 0 | 0 | 0 | 0 | 0 | 0 | 0 | 0 | 0 | Plant response rating, Barnyardgrass ([10]; 31 g ai/ha): 0; Plant response rating, Barnyardgrass ([10]; 125 g ai/ha): 0; Plant response rating, Kochia (kochia (Kochia scoparia) [11]; 31 g ai/ha): 0; Plant response rating, Kochia (kochia (Kochia scoparia) [11]; 125 g ai/ha): 0; Plant response rating, Ragweed ([12]; 31 g ai/ha): 0; Plant response rating, Ragweed ([12]; 125 g ai/ha): 0; Plant response rating, Ryegrass, Italian ([13]; 31 g ai/ha): 0; Plant response rating, Ryegrass, Italian ([13]; 125 g ai/ha): 0; Plant response rating, Foxtail, Green ([14]; 31 g ai/ha): 0; Plant response rating, Foxtail, Green ([14]; 125 g ai/ha): 0; Plant response rating, Pigweed ([15]; 31 g ai/ha): 0; Plant response rating, Pigweed ([15]; 125 g ai/ha): 0; Plant response rating, Barnyardgrass [16]: 0; Plant response rating, Ducksalad [17]: 0; Plant response rating, Rice (rice (Oryza sativa)): 0; Plant response rating, Sedge, Umbrella [18]: 0
3 | CN(C)CC1(C(=O)Nc2cccc(F)c2F)C(=O)N(C)CC1c1ccc(C(F)(F)F)cc1 (stereo not drawn) [Compound 9] | 70 | 90 | 50 | 70 | 30 | 30 | 50 | 60 | 50 | 90 | 30 | 80 | 30 | 60 | 40 | 50 | 50 | 60 | 60 | 60 | Plant response rating, Barnyardgrass ([10]; 31 g ai/ha): 90; Plant response rating, Barnyardgrass ([10]; 125 g ai/ha): 90; Plant response rating, Kochia (kochia (Kochia scoparia) [11]; 31 g ai/ha): 30; Plant response rating, Kochia (kochia (Kochia scoparia) [11]; 125 g ai/ha): 70; Plant response rating, Ragweed ([12]; 31 g ai/ha): 0; Plant response rating, Ragweed ([12]; 125 g ai/ha): 60; Plant response rating, Ryegrass, Italian ([13]; 31 g ai/ha): 60; Plant response rating, Ryegrass, Italian ([13]; 125 g ai/ha): 80; Plant response rating, Foxtail, Green ([14]; 31 g ai/ha): 90; Plant response rating, Foxtail, Green ([14]; 125 g ai/ha): 90; Plant response rating, Pigweed ([15]; 31 g ai/ha): 70; Plant response rating, Pigweed ([15]; 125 g ai/ha): 80; Plant response rating, Barnyardgrass [16]: 65; Plant response rating, Ducksalad [17]: 95; Plant response rating, Rice (rice (Oryza sativa)): 0; Plant response rating, Sedge, Umbrella [18]: 0
4 | (3S,4R)-3-acetyl-N-(2,3-difluorophenyl)-1-methyl-2-oxo-4-[4-(trifluoromethyl)phenyl]-3-pyrrolidinecarboxamide [Compound 3] | 40 | 70 | 0 | 60 | 0 | 40 | 40 | 50 | 0 | 60 | 40 | 60 | 0 | 40 | 10 | 80 | 20 | 30 | 40 | 50 | Plant response rating, Barnyardgrass ([10]; 31 g ai/ha): 80; Plant response rating, Barnyardgrass ([10]; 125 g ai/ha): 90; Plant response rating, Kochia (kochia (Kochia scoparia) [11]; 31 g ai/ha): 0; Plant response rating, Kochia (kochia (Kochia scoparia) [11]; 125 g ai/ha): 50; Plant response rating, Ragweed ([12]; 31 g ai/ha): 0; Plant response rating, Ragweed ([12]; 125 g ai/ha): 20; Plant response rating, Ryegrass, Italian ([13]; 31 g ai/ha): 20; Plant response rating, Ryegrass, Italian ([13]; 125 g ai/ha): 40; Plant response rating, Foxtail, Green ([14]; 31 g ai/ha): 90; Plant response rating, Foxtail, Green ([14]; 125 g ai/ha): 90; Plant response rating, Pigweed ([15]; 31 g ai/ha): 20; Plant response rating, Pigweed ([15]; 125 g ai/ha): 100; Plant response rating, Barnyardgrass [16]: 45; Plant response rating, Ducksalad [17]: 80; Plant response rating, Rice (rice (Oryza sativa)): 10; Plant response rating, Sedge, Umbrella [18]: 0
